Reference: patent US20230210116A1, “HONEYBEE REPELLENT” (EARTH CORPORATION, priority 2020, published 2023)

Columns and labels:
[1] = test system: honeybees; assay: Test for Confirmation of Effect from Combined Use with Pesticide 1, 2: number of dead honeybees; assay type: in vivo, western honeybees; details: for Number of dead honeybees: of 50 honeybees; for honeybees of the tested population that had died: test zone 1
Source text: (§1) Cinnamyl alcohol was used as the active ingredient of the honeybee repellent proposed by the present invention, while dinotefuran was used as the pesticide.
(§2) As the test sample representing the pesticide alone, a 0.01% by weight per volume ethanol solution of dinotefuran was used.
(§3) (2) Preparation of Feeding Stations and Water Stations 2 cotton pads (80 mm×170 mm) were layered on a lid of KP cup (150 mm in diameter) and the cotton pads were impregnated with 40% sugar water (80 g), after which two disposable wooden chopsticks (80 mm in length) were placed as “landing areas,” for use as “test insect (honeybee, stink bug) feeding station A.”
(§4) Also, equivalents of feeding station A above, except that water (80 g) was impregnated instead of 40% sugar water (80 g), were used as “water stations.”
(§5) “Test insect (honeybee, stink bug) feeding station A,” whose cotton pads were sprayed uniformly with 5 mL (containing 0.5 mg of dinotefuran) of the 0.01% by weight per volume ethanol solution of dinotefuran, was used as “test insect (honeybee, stink bug) feeding station B.”
(§6) “Test insect (honeybee, stink bug) feeding station A,” whose cotton pads were sprayed uniformly with 5 mL (containing 5 mg of cinnamyl alcohol and 0.5 mg of dinotefuran) of the mixed ethanol solution (0.1% by weight per volume of cinnamyl alcohol, 0.01% by weight per volume of dinotefuran), was used as “test insect (honeybee, stink bug) feeding station C.”
(§7) 3 spaces (80 cm×80 cm×80 cm, 25° C.) covered with nylon gauze were designated as “untreated zone” in which a water station and feeding station A were installed, “test zone 1” in which a water station and feeding stations A, B were installed, and “test zone 2” in which a water station and feeding stations A, C were installed.
(§8) In each of these “untreated zone,” “test zone 1,” and “test zone 2,” 50 honeybees (western honeybees) and 10 stink bugs (southern green stink bugs) were released and the number of dead honeybees and that of dead stink bugs were checked at the start of testing as well as 3 hours, 18 hours, and 20 hours after the start of testing.
(§9) Carvacrol was used as the active ingredient of the honeybee repellent proposed by the present invention, while clothianidin or fipronil was used as the pesticide.
(§10) As a test sample representing a combined use of the honeybee repellent proposed by the present invention and the pesticide, a mixed ethanol solution containing carvacrol and clothianidin (0.1% by weight per volume of carvacrol and 0.01% by weight per volume of clothianidin) or mixed ethanol solution containing carvacrol and fipronil (0.1% by weight per volume of carvacrol and 0.01% by weight per volume of fipronil) was used.
As a test sample representing the pesticide alone, a 0.01% by weight per volume ethanol solution of clothianidin or 0.01% by weight per volume ethanol solution of fipronil was used.
In the same manner as in <Test for Confirmation of Effect from Combined Use with Pesticide 1> above, the number of deaths among 50 honeybees (western honeybees) and that among 10 stink bugs (southern green stink bugs) were checked in each of the “untreated zone,” “test zone 1,” and “test zone 2.” Based on the results of <Test for Confirmation of Effect from Combined Use with Pesticide 1> above, the test was terminated when the number of dead honeybees in “test zone 1” reached around one half the tested population.

[2] = test system: stink bugs; assay: Test for Confirmation of Effect from Combined Use with Pesticide 1, 2: number of dead stink bugs; assay type: in vivo, southern green stink bugs; details: of 10 stink bugs
Source text: as §1, §2, §3, §4, §5, §6, §7, §8, §9
as §10, with “used. […]” for “used.”

[3] = 0 h (start of testing), 0.01% w/v pesticide, with or without 0.1% w/v repelling component, 5 mL on feeding station
[4] = 3 hours after the start of test

Row | Compound | Number of dead honeybees [1, 3] | Number of dead honeybees ([1]; 3 h) | Number of dead honeybees ([1]; 18 h) | Number of dead honeybees ([1]; 20 h) | honeybees of the tested population that had died ([1]; 20 hours after the start of testing) | Number of dead stink bugs ([2]; 0 h (start of testing)) | Number of dead stink bugs ([2]; 3 h) | Number of dead stink bugs ([2]; 18 h) | Number of dead stink bugs ([2]; 20 h) | Number of dead honeybees ([1]; 2 h) | honeybees of the tested population that had died [1, 4] | Number of dead honeybees ([1]; 1 h)
1 | CN/C(=N/CC1CCOC1)N[N+](=O)[O-] (stereo not drawn) [dinotefuran] | 0 | 1 | 3 | 21 | approx. 40% | 0 | 2 | 5 | 6 | – | – | –
2 | N#Cc1nn(-c2c(Cl)cc(C(F)(F)F)cc2Cl)c(N)c1[S+]([O-])C(F)(F)F (stereo not drawn) [fipronil] | 0 | 32 | – | – | – | – | – | – | – | 14 | approx. 60% | –
3 | CN/C(=N\[N+](=O)[O-])NCc1cnc(Cl)s1 [clothianidin] | 0 | 39 | – | – | – | – | – | – | – | 18 | approx. 60% | 11
